27 compounds from patent publication US11590116B2 (THERAVANCE BIOPHARMA R&D IP, LLC, priority 2019, dated 2023) can be followed below.

Some results are limits rather than exact numbers.

The target in experiment [1] is T1, recombinant human ALK5 (TGF-βR1) protein (Homo sapiens, UniProt P36897).
T1 construct: purchased Life Technologies PR9075A
T1 sequence (P36897 34-503): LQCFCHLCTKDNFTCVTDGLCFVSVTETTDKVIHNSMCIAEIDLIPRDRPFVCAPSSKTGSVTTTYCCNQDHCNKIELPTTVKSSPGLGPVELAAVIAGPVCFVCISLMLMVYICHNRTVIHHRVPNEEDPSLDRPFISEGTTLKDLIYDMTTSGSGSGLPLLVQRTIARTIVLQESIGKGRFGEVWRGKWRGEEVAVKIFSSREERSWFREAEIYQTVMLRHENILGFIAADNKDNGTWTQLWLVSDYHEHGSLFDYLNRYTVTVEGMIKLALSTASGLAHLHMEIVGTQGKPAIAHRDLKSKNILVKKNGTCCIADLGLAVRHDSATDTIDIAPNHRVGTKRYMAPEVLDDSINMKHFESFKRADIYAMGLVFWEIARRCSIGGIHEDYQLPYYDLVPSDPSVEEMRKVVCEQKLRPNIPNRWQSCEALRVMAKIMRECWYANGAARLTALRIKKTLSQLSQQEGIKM
Description: Biochemical ALK5 (TGF-βR1) assay to measure pKi (LANCE Ultra ULight kinase assay). To be noted: apparent pKi from pIC50 by Cheng-Prusoff, read-out: ALK5 pKi (converted). The method in brief:
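Compounds (10 μM to 25 pM) were preincubated 60 min at room temperature with enzyme, then reactions were started with ATP (125 μM stock, 5× final) and run 60 min at 37 °C. EDTA-containing Eu-anti-phospho-Topo IIα (Thr1342) antibody stopped the reaction; TR-FRET read at 665 nm. pIC50 from 4-parameter fit, converted to pKi via Cheng-Prusoff.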
In general terms: TR-FRET usually uses a lanthanide donor and a delayed reading to cut background.

Experiment [2] has as its system TGF-β-stimulated SMAD3 phosphorylation in BEAS-2B cells. Put plainly: Cellular ALK5 potency assay, inhibition of TGF-β stimulated pSMAD3 formation in BEAS-2B cells. The experiment is classed as cell-based. Particulars: Homo sapiens; inhibition of TGF-β stimulated pSMAD3 formation, BEAS-2B cells; read-out: BEAS2B pIC50 (converted). Put shortly:
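Potency is reported as pIC50, derived from concentration-dependent reduction of pSMAD3 AlphaLISA signal against TGF-β-stimulated cells without compound. BEAS-2B cells received compound for 1 h before a 30-min stimulation with 10 ng/mL TGF-β.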

In the case of `Cc1nc(-c2n[nH]cc2-c2ccc3ncc(-c4nc5c(s4)CNCC5)cc3n2)ccc1F` [Compound 329, 2-[6-[3-(5-fluoro-6-methyl-2-pyridyl)-1H-pyrazol-4-yl]-1,5-naphthyridin-3-yl]-4,5,6,7-tetrahydrothiazolo[5,4-c]pyridine], the Ki in experiment [1] was 0.0398 to 0.316 nM. Moreover, in experiment [2], the IC50 was 25.1 to 158 nM.

As for `Cc1cccc(-c2[nH]ncc2-c2ccc3ncc(C(=O)O)cc3n2)n1` [Compound 553, 6-[5-(6-methyl-2-pyridyl)-1H-pyrazol-4-yl]-1,5-naphthyridine-3-carboxylic acid], the Ki in experiment [1] is 3.98 to 31.6 nM. In addition, the IC50 in experiment [2] is 1580 to 10000 nM.

`COC(=O)c1cccc(-c2cnc3ccc(-c4c[nH]nc4-c4cccc(C)n4)nc3c2)c1` [Compound 369, methyl 3-[6-[3-(6-methyl-2-pyridyl)-1H-pyrazol-4-yl]-1,5-naphthyridin-3-yl]benzoate]: the Ki in experiment [1] was under 0.0316 nM. Also, the IC50 in experiment [2] was under 20 nM.

For the compound `Cc1cccc(-c2[nH]cnc2-c2ccc3ncc(C4=CCN(C(=O)C5CCCNC5)CC4)cc3c2)n1` (stereo not drawn) [Compound 1150, [4-[6-[5-(6-methyl-2-pyridyl)-1H-imidazol-4-yl]-3-quinolyl]-3,6-dihydro-2H-pyridin-1-yl]-(3-piperidyl)methanone], the Ki in experiment [1] was 0.0398 to 0.316 nM. Further, the IC50 in experiment [2] is 25.1 to 158 nM.

Take `Cc1nc(-c2n[nH]cc2-c2ccc3ncc(N4CCCNCC4)cc3n2)ccc1F` [Compound 318, 7-(1,4-diazepan-1-yl)-2-[3-(5-fluoro-6-methyl-2-pyridyl)-1H-pyrazol-4-yl]-1,5-naphthyridine]: the Ki in experiment [1] was 0.0398 to 0.316 nM. In experiment [2], the IC50 is 25.1 to 158 nM.

As for `Cc1cccc(-c2n[nH]cc2-c2ccc3ncc(-c4ccc(=O)n(C)c4)cc3n2)n1` [Compound 345, 1-methyl-5-[6-[3-(6-methyl-2-pyridyl)-1H-pyrazol-4-yl]-1,5-naphthyridin-3-yl]pyridin-2-one], the Ki in experiment [1] is under 0.0316 nM. Also, in experiment [2], the IC50 is under 20 nM.

As to `Cc1cccc(-c2n[nH]cc2-c2ccc3ncc(N4CCCN(C5CCNCC5)CC4)cc3n2)n1` [Compound 638, 2-[3-(6-methyl-2-pyridyl)-1H-pyrazol-4-yl]-7-[4-(4-piperidyl)-1,4-diazepan-1-yl]-1,5-naphthyridine], the Ki in experiment [1] was 0.0398 to 0.316 nM. For the same compound, in experiment [2], the IC50 was 1580 to 10000 nM.

Regarding `Cc1cccc(-c2[nH]cnc2-c2ccc3ncc(-c4ncc(C(=O)OC5CNC5)cn4)cc3c2)n1` [Compound 1063, azetidin-3-yl 2-[6-[5-(6-methyl-2-pyridyl)-1H-imidazol-4-yl]-3-quinolyl]pyrimidine-5-carboxylate], in experiment [1], the Ki is 0.0398 to 0.316 nM. In addition, the IC50 in experiment [2] was 25.1 to 158 nM.

As to `Cc1cccc(-c2n[nH]cc2-c2ccc3ncc(-c4cccnc4)cc3n2)n1` [Compound 595, 2-[3-(6-methyl-2-pyridyl)-1H-pyrazol-4-yl]-7-(3-pyridyl)-1,5-naphthyridine], the Ki in experiment [1] was under 0.0316 nM. Moreover, the IC50 in experiment [2] is under 20 nM.

Take `COC(=O)[C@@H]1CN(CCNc2cnc3ccc(-c4nc[nH]c4-c4cccc(C)n4)cc3c2)CCN1` [Compound 717, methyl (2S)-4-[2-[[6-[5-(6-methyl-2-pyridyl)-1H-imidazol-4-yl]-3-quinolyl]amino]ethyl]piperazine-2-carboxylate]: in experiment [1], the Ki is 0.0398 to 0.316 nM. Also, the IC50 in experiment [2] is 25.1 to 158 nM.

As for `Cc1cccc(-c2[nH]cnc2-c2ccc3ncc(-c4csc(C(=O)OCCN5CCNCC5)c4)cc3c2)n1` [Compound 1242, 2-piperazin-1-ylethyl 4-[6-[5-(6-methyl-2-pyridyl)-1H-imidazol-4-yl]-3-quinolyl]thiophene-2-carboxylate], in experiment [1], the Ki was under 0.0316 nM. Also, in experiment [2], the IC50 was 25.1 to 158 nM.

For `Cc1cccc(-c2n[nH]cc2-c2ccc3ncc(CNCCN4CCOCC4)cc3n2)n1` [Compound 633, N-[[6-[3-(6-methyl-2-pyridyl)-1H-pyrazol-4-yl]-1,5-naphthyridin-3-yl]methyl]-2-morpholino-ethanamine], the Ki in experiment [1] is 0.398 to 3.16 nM. Also, the IC50 in experiment [2] was 25.1 to 158 nM.

For the compound `Cc1cccc(-c2n[nH]cc2-c2ccc3ncc(-c4ncn5c4CNCC5)cc3n2)n1` [Compound 118, 2-[3-(6-methyl-2-pyridyl)-1H-pyrazol-4-yl]-7-(5,6,7,8-tetrahydroimidazo[1,5-a]pyrazin-1-yl)-1,5-naphthyridine], the Ki in experiment [1] was 0.0398 to 0.316 nM. Besides, the IC50 in experiment [2] is 25.1 to 158 nM.

As to `Cc1cccc(-c2[nH]cnc2-c2ccc3ncc(-c4cc(C(=O)O[C@@H]5CCNC5)ccn4)cc3c2)n1` [Compound 1087, [(3R)-pyrrolidin-3-yl] 2-[6-[5-(6-methyl-2-pyridyl)-1H-imidazol-4-yl]-3-quinolyl]pyridine-4-carboxylate], the Ki in experiment [1] was under 0.0316 nM. In experiment [2], the IC50 was 25.1 to 158 nM.

`Cc1cccc(-c2[nH]ncc2-c2ccc3ncc(C(=O)O[C@H]4C[C@H](N)C4)cc3c2)n1` [Compound 1181, (3-aminocyclobutyl) 6-[5-(6-methyl-2-pyridyl)-1H-pyrazol-4-yl]quinoline-3-carboxylate]: in experiment [1], the Ki is 0.0398 to 0.316 nM. Also, in experiment [2], the IC50 is under 20 nM.

`Cc1cccc(-c2[nH]cnc2-c2ccc3nccc(C(=O)OC[C@H]4CC[C@@H](N)CC4)c3c2)n1` [Compound 1077, (4-aminocyclohexyl)methyl 6-[5-(6-methyl-2-pyridyl)-1H-imidazol-4-yl]quinoline-4-carboxylate]: the Ki in experiment [1] is 0.398 to 3.16 nM. Besides, the IC50 in experiment [2] is 25.1 to 158 nM.

In the case of `Cc1nc(-c2n[nH]cc2-c2ccc3ncc(-c4cn5c(n4)NCC5)cc3n2)ccc1F` [Compound 658, 7-(2,3-dihydro-1H-imidazo[1,2-a]imidazol-6-yl)-2-[3-(5-fluoro-6-methyl-2-pyridyl)-1H-pyrazol-4-yl]-1,5-naphthyridine], in experiment [1], the Ki was under 0.0316 nM. For the same compound, the IC50 in experiment [2] was under 20 nM.

As for `Cc1cccc(-c2[nH]cnc2-c2ccc3ncc(C(=O)O[C@H]4C[C@H](N)C4)cc3c2)n1` [Compound 782, (3-aminocyclobutyl) 6-[5-(6-methyl-2-pyridyl)-1H-imidazol-4-yl]quinoline-3-carboxylate], the Ki in experiment [1] was 0.0398 to 0.316 nM. The IC50 in experiment [2] was 25.1 to 158 nM.

Take `Cc1cccc(-c2[nH]cnc2-c2ccc3ncc(-c4cnc5c(c4)CNCC5)cc3c2)n1` [Compound 77, 3-[6-[5-(6-methyl-2-pyridyl)-1H-imidazol-4-yl]-3-quinolyl]-5,6,7,8-tetrahydro-1,6-naphthyridine]: in experiment [1], the Ki is 0.0398 to 0.316 nM. Moreover, the IC50 in experiment [2] is 25.1 to 158 nM.

With `Cc1cccc(-c2nc3ccccn3c2-c2ccc3ncc(N4CCC(N(C)C)C4)cc3c2)n1` (stereo not drawn) [Compound 272, N,N-dimethyl-1-[6-[2-(6-methyl-2-pyridyl)imidazo[1,2-a]pyridin-3-yl]-3-quinolyl]pyrrolidin-3-amine], the Ki in experiment [1] is under 0.0316 nM. The IC50 in experiment [2] is 25.1 to 158 nM.

In the case of `Cc1cccc(-c2[nH]cnc2-c2ccc3ncc(N)cc3c2)n1` [Compound 594, 6-[5-(6-methyl-2-pyridyl)-1H-imidazol-4-yl]quinolin-3-amine], the Ki in experiment [1] is 0.0398 to 0.316 nM. The IC50 in experiment [2] was under 20 nM.

In the case of `Cc1nc(-c2[nH]cnc2-c2ccc3ncc(NCCN4CCCC4(C)C)cc3n2)ccc1F` [Compound 603, N-[2-(2,2-dimethylpyrrolidin-1-yl)ethyl]-6-[5-(5-fluoro-6-methyl-2-pyridyl)-1H-imidazol-4-yl]-1,5-naphthyridin-3-amine], the Ki in experiment [1] was under 0.0316 nM. Moreover, the IC50 in experiment [2] was 25.1 to 158 nM.

For the compound `Cc1cccc(-c2n[nH]cc2-c2ccc3ncc(-c4cnn(CC(=O)O)c4)cc3n2)n1` [Compound 240, 2-[4-[6-[3-(6-methyl-2-pyridyl)-1H-pyrazol-4-yl]-1,5-naphthyridin-3-yl]pyrazol-1-yl]acetic acid], in experiment [1], the Ki was under 0.0316 nM. Besides, the IC50 in experiment [2] is 25.1 to 158 nM.

Take `Cc1cccc(-c2[nH]cnc2-c2ccc3ncc(-c4ccc(C(=O)OC5CCNCC5)cc4)cc3c2)n1` [Compound 310, 4-piperidyl 4-[6-[5-(6-methyl-2-pyridyl)-1H-imidazol-4-yl]-3-quinolyl]benzoate]: in experiment [1], the Ki was 0.0398 to 0.316 nM. For the same compound, in experiment [2], the IC50 is 25.1 to 158 nM.

For `CNCc1cncc(-c2cnc3ccc(-c4nc[nH]c4-c4cccc(C)n4)cc3c2)c1` [Compound 342, N-methyl-1-[5-[6-[5-(6-methyl-2-pyridyl)-1H-imidazol-4-yl]-3-quinolyl]-3-pyridyl]methanamine], in experiment [1], the Ki is 0.0398 to 0.316 nM. Also, the IC50 in experiment [2] is 25.1 to 158 nM.

As for `Cc1cccc(-c2[nH]cnc2-c2ccc3ncc(-c4ccc5c(c4)CNCC5)cc3c2)n1` [Compound 609, 6-[5-(6-methyl-2-pyridyl)-1H-imidazol-4-yl]-3-(1,2,3,4-tetrahydroisoquinolin-7-yl)quinoline], the Ki in experiment [1] is 0.0398 to 0.316 nM. Moreover, the IC50 in experiment [2] is under 20 nM.

For the compound `Cc1cccc(-c2n[nH]cc2-c2ccc3ncc(N4CCNC(CO)C4)cc3n2)n1` (stereo not drawn) [Compound 66, [4-[6-[3-(6-methyl-2-pyridyl)-1H-pyrazol-4-yl]-1,5-naphthyridin-3-yl]piperazin-2-yl]methanol], the Ki in experiment [1] was 0.0398 to 0.316 nM. The IC50 in experiment [2] was 25.1 to 158 nM.
